In publication PMC6754133 (PLoS ONE, 2019):
pEC50, pIC50: −log10 of the molar value. Read-outs that look alike come from different tables or passages of the source. Blank lines part the entries; values can stand above or below the compound they belong to.

Experiments:
SMO [1] = molecular target: T1, SMO (Mus musculus, UniProt P56726); details: literature value, cited from earlier work; for pIC50: read-out: Gli-RE-luciferase assay IC50
T1 construct: host or cells: NIH 3T3 Gli-RE

Hh/SMO pathway = assay: Gli-Luciferase functional assay, NIH 3T3 Gli-RE cells stimulated with ShhN; type: cell-based; details: for Span of concentration response curve: data as percent of the maximum luminescence in the absence of antagonists, Fig 4; for Inhibition of ShhN-induced Hh signaling (in words): NIH 3T3 Gli-RE cells, ShhN stimulated
Method: After 24 hours, when the cells reached confluency, the culture medium was replaced with 80 μL per well of assay medium [Optimem ± 10 mM HEPES ± 1 mM Sodium Pyruvate + 1× MEM NEAA]. […] Then the cells were stimulated by addition of either ShhN-conditioned media or control media (DMEM±10%BCS) at a final concentration of 10%. Following incubation of the plate for at least 28 hours at 37°C, the cells were simultaneously lysed and supplemented with a luciferase substrate by addition of equal volume of Steady-Glo reagent (Promega, E2520) directly to the assay media. Plates were mixed by pipetting, centrifuged to eliminate foam, incubated for 10 minutes, and analyzed using Perkin Elmer Viktor X luminescence plate reader. The results were analyzed using a non-linear regression (Prism 6, GraphPad Software, La Jolla, CA). Data were normalized to the maximal response observed for ShhN-stimulated cells in the same experiment. A sigmoidal-dose response curve was used as a model for data analysis and IC50 value calculation.

MB-PDX and DAOY cells [2] = assay: alamarBlue cell viability assay, adherent versus NS conditions; type: cell-based, human
Method: The results were analyzed using a non-linear regression (Prism 6, GraphPad Software, La Jolla, CA).

DAOY cells [3] = assay: Neurosphere formation assay; type: cell-based, human; details: DAOY, 10 μM, at least 7 days, 1–2 cells per well
Method: (§2) The final concentration of test compounds in the wells was 10 μM. Cells were incubated at 37 °C for at least seven days. After incubation percent of wells positive with neural stem cell-derived sphere colonies were calculated for each test condition and compared.

DAOY cells [4] = assay: cells; details: Homo sapiens, 72 h, read-out: Cell viability assay IC50
MB-PDX cells [5] = assay: Neurosphere formation assay; type: cell-based, human; details: MB-PDX, 10 μM, at least 7 days, 1–2 cells per well
Method: as §2

[6] = test system: Platelet-derived growth factor receptor beta (PGFRB_HUMAN); set-up: method as in earlier work; details: S2/S3 Table; ref [1] Davis MI et al., Nat Biotechnol. 2011; cited from earlier work
[7] = test system: firefly luciferase under control of cAMP response element (CRE); assay: CRE-luciferase counter assay in HEK293s cells; type: cell-based; details: different concentrations
Method: (a) The drugs were tested at different concentrations in HEK293s cells stably transfected with firefly luciferase under control of cAMP response element (CRE) (pGL4.29[luc2P/CRE/Hygro], Promega). […] Raw, non-normalized luminescence values are presented, to facilitate the assessment of the extent of inhibition. Shown is a single representative experiment out of the multiple experiments performed on different days. (Mean ± SD)

MB-PDX and DAOY cells [8] = assay: Cell viability with and without Vismodegib (0.5 uM), alamar blue; type: cell-based, human; details: with 0.5 μM Vismodegib, 72 hours
Method: S6 Figure: Cell viability in Medulloblastoma Cells (MB-PDX and DAOY) [n=3]. […] The cell viability was measured after 72 hours of treatment using alamar blue. (Mean ± SD)

[9] = test system: Platelet-derived growth factor receptor alpha (PGFRA_HUMAN); set-up: method as in earlier work; details: S2/S3 Table; ref [1] Davis MI et al., Nat Biotechnol. 2011; cited from earlier work
[10] = test system: Mast/stem cell growth factor receptor Kit (KIT_HUMAN); set-up: method as in earlier work; details: S2/S3 Table; ref [1] Davis MI et al., Nat Biotechnol. 2011; cited from earlier work
mSMO = molecular target: T2, mSMO (Mus musculus, UniProt P56726); assay: BODIPY-Cyclopamine competition binding assay, flow cytometry, HEK293T cells transiently transfected with mSMO; details: BODIPY-Cyclopamine 5 nM
T2 construct: host or cells: HEK293T
Method: Prior to transfection, cell culture media was replaced with DMEM + 10%FBS for mSMO transfection and with DMEM + 10%BCS for ShhN transfection. The transfected dish was incubated for approximately 24 hours at 37°C. For the production of ShhN conditioned medium, the culture medium from ShhN-transfected HEK293T cells was collected, aliquoted in single use 1.5 mL Eppendorf tubes and either used fresh or stored at -20°C.
HEK293T cells transiently transfected with mSMO were lifted with trypsin (0.25%) and replated at 6×10^4 cells in 80 μL DMEM + 10%FBS per well in a 96 well tissue-culture treated plate (Falcon, 353219). The plate was incubated at 37°C for 24 hours. Serial dilutions of test compounds (10x final concentrations) were prepared in culture media. 10 μL of diluted compounds or control media were added to the plate after which the plate was incubated at 37°C for 10 min. […] Following at least 1.5 hours incubation at 37°C in 5% CO2, cells were lifted by vigorous pipetting, transferred to conical bottom 96-well plates, and centrifuged at 400 × g for 5 min at 4°C. Supernatant was discarded, cells were re-suspended in 300 μL of PBS + 0.5% BSA (freshly prepared), and the plate was analyzed with Guava benchtop flow cytometer. The results were interpreted with FlowJo software (version v10.1). Dose response curves were constructed in Prism 6 (GraphPad Software, La Jolla, CA).

SMO [11] = molecular target: T1, SMO; assay: Competitive functional inhibition assay against SAG, Gli-Luciferase, NIH 3T3 Gli-RE cells; type: cell-based; details: read-out: EC50 of SAG (printed as IC50 in Fig 5c); SAG alone
Method: After 24 hours, when the cells reached confluency, the culture medium was replaced with 80 μL per well of assay medium [Optimem ± 10 mM HEPES ± 1 mM Sodium Pyruvate + 1× MEM NEAA]. […] Following incubation of the plate for at least 28 hours at 37°C, the cells were simultaneously lysed and supplemented with a luciferase substrate by addition of equal volume of Steady-Glo reagent (Promega, E2520) directly to the assay media. Plates were mixed by pipetting, centrifuged to eliminate foam, incubated for 10 minutes, and analyzed using Perkin Elmer Viktor X luminescence plate reader. The results were analyzed using a non-linear regression (Prism 6, GraphPad Software, La Jolla, CA). Data were normalized to the maximal response observed for ShhN-stimulated cells in the same experiment. A sigmoidal-dose response curve was used as a model for data analysis and IC50 value calculation.

MB-PDX cells [12] = assay: cells; details: Homo sapiens, 72 h, read-out: Cell viability assay IC50
[13] = test system: nuclear Gli-1 in MB-PDX cells; assay: Western blot quantitation of nuclear Gli-1; type: cell-based, human; details: NS conditions, 24-hour treatment, 5 μM (Fig 6f, S4 Fig)
Method: (§1) Nuclear fractions were prepared from cell pellets according to the method of Schreiber et. al.[81] with minor modifications. […] After 24 hours, cells were lifted from the wells by pipetting, transferred to 1.5 mL Eppendorf tubes, centrifuged at 10,000 x g for 1 minutes at 4°C, and washed once in PBS. Following supernatant removal by vacuum, cells were lysed using a plasma membrane lysis buffer [10 mM HEPES; pH 7.5, 10 mM KCl, 0.1 mM EDTA, 1 mM dithiothreitol (DTT), 0.5% Nonidet P‐40 and 0.5 mM PMSF along with 1× protease inhibitor cocktail (Sigma)] and allowed to swell on ice for 15‐20 min with intermittent mixing. Next, tubes were vortexed to disrupt cell membranes and then centrifuged at 12,000 × g at 4°C for 10 min. […] The pelleted nuclei were washed with the plasma membrane lysis buffer and re-suspended in the nuclear extraction buffer [20 mM HEPES (pH 7.5), 400 mM NaCl, 1 mM EDTA, 1 mM DTT, 1 mM PMSF with 1× protease inhibitor cocktail] and incubated on ice for 30 min. The tubes were centrifuged at 12,000 ×g for 25 min at 4°C and the supernatant (now containing the soluble fraction of the cell nuclei) was collected. Total protein concentrations were determined using the Bio-Rad Protein Assay (Bio-Rad, Hercules, CA). Nuclear extracts containing the total of 40 μg protein were separated on a 10% Tris-SDS PAGE gel (Bio-Rad Mini-PROTEAN® TGX). Gels were transferred on nitrocellulose membranes using Bio-Rad TransBlot system, after which the membranes were blocked in the blocking buffer [5% nonfat dry milk in 1× Tris Buffer Saline + 0.1% Tween 20 (TBST)] for 2 hours at room temperature. Following blocking, the membranes were washed four times with TBST (5 minutes gentle rocking per wash) and incubated overnight with primary antibody Rabbit anti-Gli-1 (Cell signaling, #C68H3); 1:250 dilution in TBST-Milk at 4°C with gentle rocking. Membranes were washed three times with TBST for 5 min each.

[14] = test system: nuclear Gli-1 in DAOY cells; assay: Western blot quantitation of nuclear Gli-1; type: cell-based, human; details: NS conditions, 24-hour treatment, 5 μM (Fig 6f, S4 Fig)
Method: as §1

[15] = Mus musculus, NIH3T3, NIH3T3 Gli-RE cells, ShhN-conditioned media, n = 3, read-out: Hh/SMO pathway inhibition IC50
[16] = NIH3T3 Gli-RE cells, ShhN-conditioned media, n = 3, read-out: Hh/SMO pathway inhibition IC50

T1 sequence (P56726 33-793): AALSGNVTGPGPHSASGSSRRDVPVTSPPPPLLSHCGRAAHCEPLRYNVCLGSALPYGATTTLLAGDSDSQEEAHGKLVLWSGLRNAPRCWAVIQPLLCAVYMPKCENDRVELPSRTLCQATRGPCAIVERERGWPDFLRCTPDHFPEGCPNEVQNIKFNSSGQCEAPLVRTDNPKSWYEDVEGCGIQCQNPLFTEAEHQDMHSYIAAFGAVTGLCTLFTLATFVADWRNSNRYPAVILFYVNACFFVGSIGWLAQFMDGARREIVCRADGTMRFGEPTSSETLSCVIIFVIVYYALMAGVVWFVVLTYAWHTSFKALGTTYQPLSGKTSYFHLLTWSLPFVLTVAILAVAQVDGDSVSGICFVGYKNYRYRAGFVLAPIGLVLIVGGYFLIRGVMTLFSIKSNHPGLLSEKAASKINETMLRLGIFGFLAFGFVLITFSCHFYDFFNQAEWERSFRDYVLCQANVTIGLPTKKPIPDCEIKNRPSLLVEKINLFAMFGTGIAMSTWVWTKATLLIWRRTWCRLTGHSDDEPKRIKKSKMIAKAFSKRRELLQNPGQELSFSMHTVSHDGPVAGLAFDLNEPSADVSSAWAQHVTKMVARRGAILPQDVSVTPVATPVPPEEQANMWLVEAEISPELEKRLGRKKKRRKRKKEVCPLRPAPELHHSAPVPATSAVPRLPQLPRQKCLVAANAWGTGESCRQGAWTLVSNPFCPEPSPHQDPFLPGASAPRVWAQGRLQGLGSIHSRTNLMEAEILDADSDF
T2 sequence (P56726 33-793): as above

SMILES: Cc1csc(CN[C@@H]2Cc3ccc(NC(=O)c4cccc(C)c4-c4ccc(C(F)(F)F)cc4)cc3C2)n1 [23b_ NV, 3-methyl-N-[(2R)-2-[(4-methyl-1,3-thiazol-2-yl)methylamino]-2,3-dihydro-1H-inden-5-yl]-2-[4-(trifluoromethyl)phenyl]benzamide]
pIC50 (SMO [1]): 7.77

SMILES: CNCc1ccc(C)c(NC(=O)c2ccc(Nc3nc(-c4ccccc4)c4ccccc4n3)cc2)c1 [BMS_833923]
pIC50 (SMO [1]): 7.46 to 8.22

SMILES: CC1=C2C[C@H]3[C@@H](CC=C4C[C@@H](O)CC[C@@]43C)[C@@H]2CC[C@]12O[C@@H]1C[C@H](C)CN[C@H]1[C@H]2C [Cyclopamine]
pIC50 (Hh/SMO pathway; Mus musculus, NIH3T3, read-out: Hh/SMO pathway inhibition IC50, NIH3T3 Gli-RE cells, ShhN-conditioned media, n = 3): 6.72
Span of concentration response curve (Hh/SMO pathway): 105.7
pIC50 (Hh/SMO pathway; read-out: Hh/SMO pathway inhibition IC50, NIH3T3 Gli-RE cells, ShhN-conditioned media, n = 3): 6.72

SMILES: C#Cc1cccc(Nc2ncnc3cc(OCCOC)c(OCCOC)cc23)c1 [Erlotinib]
Effect on cell viability (in words) (MB-PDX and DAOY cells [2]): did not affect cell viability under any condition
Inhibition of NS formation, wells (DAOY cells [3]): ineffective
pIC50 (DAOY cells [4]): 4.96
Inhibition of NS formation, wells (MB-PDX cells [5]): ineffective

SMILES: Cc1ccc(NC(=O)c2ccc(CN3CCN(C)CC3)cc2)cc1Nc1nccc(-c2cccnc2)n1 [Imatinib]
Kd/Ki Value [6]: 14 nM
Inhibition of NS formation, wells (DAOY cells [3]): less potent
Inhibition of NS formation, wells (MB-PDX cells [5]): less potent
Effect on CRE-driven luciferase activity (independent of SMO) [7]: lack of dose-dependent effect
Change of efficacy in cell viability assay in the presence of Vismodegib (MB-PDX and DAOY cells [8]): improvement in efficacy
Kd/Ki Value [9]: 31 nM
Inhibition of ShhN-induced Hh signaling (in words) (Hh/SMO pathway): inhibited ShhN-induced Hh signaling in a dose-dependent manner
Kd/Ki Value [10]: 13 nM

SMILES: CCC(C)n1ncn(-c2ccc(N3CCN(c4ccc(OCC5COC(Cn6cncn6)(c6ccc(Cl)cc6Cl)O5)cc4)CC3)cc2)c1=O (centres unmarked) [Itraconazole]
pIC50 (SMO [1]): 6.10

SMILES: C[C@@]12CN(C(=O)Nc3ccnn3-c3ccccc3)CCN1C(=O)N([C@H]1C[C@@H]1c1ccccc1)C2=O [MK_5710, (8aS)-8a-methyl-1,3-dioxo-2-[(1S,2R)-2-phenylcyclopropyl]-N-(1-phenyl-1H-pyrazol-5-yl)hexahydroimid azo[1,5-a]pyrazine-7(1H)-carboxamide]
pIC50 (SMO [1]): 7.77

Displacement of BODIPY-Cyclopamine from SMO (in words) (mSMO): no effect
pIC50 (Hh/SMO pathway; [15]): 6.49
pIC50 (Hh/SMO pathway; [16]): 6.48
SMILES: COC(=O)Nc1nc2ccc(C(=O)c3ccccc3)cc2[nH]1 [Mebendazole]
Inhibition of ShhN-induced Hh signaling (in words) (Hh/SMO pathway): inhibited ShhN-induced Hh signaling in a dose-dependent manner
Span of concentration response curve (Hh/SMO pathway): 108.1

Displacement of BODIPY-Cyclopamine from SMO (in words) (mSMO): no effect
SMILES: CS(=O)(=O)Nc1ccc([N+](=O)[O-])cc1Oc1ccccc1 [Nimesulide]
Inhibition of ShhN-induced Hh signaling (in words) (Hh/SMO pathway): inactive
Span of concentration response curve (Hh/SMO pathway): -3.874

pEC50 (SMO [11]): 7.10
SMILES: CNC1CCC(N(Cc2cccc(-c3ccncc3)c2)C(=O)c2sc3ccccc3c2Cl)CC1 (centres unmarked) [SAG]
pEC50 (SMO [1]; read-out: Gli-RE-luciferase assay EC50 (for SAG the value is EC50 not IC50), agonist): 8.52

SMILES: Cc1nn(-c2ccccc2)c(C)c1/C=N/N1CCN(Cc2ccccc2)CC1 [SANT-1]
pIC50 (SMO [1]): 7.70

SMILES: CC1=C2C[C@H]3[C@@H](CC[C@@H]4C[C@H](NS(C)(=O)=O)CC[C@@]43C)[C@@H]2CC[C@@]2(C1)O[C@@H]1C[C@H](C)CN[C@H]1[C@H]2C [Saridegib]
pIC50 (SMO [1]): 8.05

SMILES: Cc1c(C(=O)Nc2ccc(N3C[C@@H](C)O[C@@H](C)C3)nc2)cccc1-c1ccc(OC(F)(F)F)cc1 [Sonidegib (NVP-LDE225), Sonidegib]
pIC50 (SMO [1]): 8.60

SMILES: CN(C(=O)c1ccc(F)cc1C(F)(F)F)C1CCN(c2nnc(-c3ccnn3C)c3ccccc23)CC1 [Taladegib (LY2940680), Taladegib]
pIC50 (SMO [1]): 8.59

Displacement of BODIPY-Cyclopamine from SMO (in words) (mSMO): no effect
SMILES: O=C1CCC(N2C(=O)c3ccccc3C2=O)C(=O)N1 (centres unmarked) [Thalidomide]
Inhibition of ShhN-induced Hh signaling (in words) (Hh/SMO pathway): inactive
Span of concentration response curve (Hh/SMO pathway): -12.85

pIC50 (Hh/SMO pathway; [15]): 8.39
pIC50 (Hh/SMO pathway; [16]): 8.40
SMILES: CS(=O)(=O)c1ccc(C(=O)Nc2ccc(Cl)c(-c3ccccn3)c2)c(Cl)c1 [Vismodegib]
Inhibition of NS formation, wells (DAOY cells [3]): ineffective
Inhibition of NS formation, wells (MB-PDX cells [5]): ineffective
Effect on CRE-driven luciferase activity (independent of SMO) [7]: lack of dose-dependent effect
pIC50 (MB-PDX cells [12]): 4.28
Nuclear Gli-1, mean, % of untreated samples [13]: 67%
Nuclear Gli-1, mean, % of untreated samples [14]: 75%
